The numbers were not newly measured in publication PMC10349193 (CPT: Pharmacometrics & Systems Pharmacology, 2023), which cites them from elsewhere.

On the set-up of data set [1]: method as in SimCYP library version 19. The following applies: ref SimCYP library version 19; cited from earlier work.
In data set [2] the test system is CYP2C8. More on the design: method as in SimCYP library version 19. Particulars: ref SimCYP library version 19, cited from earlier work.
For data set [3] the following is noted: model input; ref SimCYP library version 19; cited from earlier work.
Data set [4] concerns CYP2C8. More on the design: method as in SimCYP library version 19. Particulars: ref SimCYP library version 19; cited from earlier work.
A further data set deals with CYP2B6. Set-up: method as in SimCYP library version 19. The following applies: ref SimCYP library version 19, cited from earlier work.
For data set [5] the following is noted: model input; ref SimCYP library version 19; cited from earlier work. The source holds these as a separate data set.
The next data set concerns CYP1A2. More on the design: method as in SimCYP library version 19. Particulars: ref SimCYP library version 19; cited from earlier work.
For data set [6] the following is noted: model input; ref SimCYP library version 19; cited from earlier work. The source holds these as a separate data set.
The conditions of data set [7]: single adjusting compartment; ref SimCYP library version 19; cited from earlier work.

In general, Log P refers to the decadic logarithm of the partition coefficient of the neutral form, usually between octanol and water. On to `CO[C@H]1/C=C/O[C@@]2(C)Oc3c(C)c(O)c4c(O)c(c(/C=N/N5CCN(C)CC5)c(O)c4c3C2=O)NC(=O)/C(C)=C\C=C\[C@H](C)[C@H](O)[C@@H](C)[C@@H](O)[C@@H](C)[C@H](OC(C)=O)[C@@H]1C` [Rifampicin], for which, in data set [1], the CLR was 1.26 L/h. In addition, the EC50 in the data set on CYP2C8 [2] (induction, read-out: CYP2C8 IndC50) is 0.3 µM. In addition, the “fuinc (CYP2C8 induction)” value in the data set on CYP2C8 [2] is recorded as 1. Moreover, in data set [3], the “Log P” value was 4.01, the “pKa 1” value was 1.7 and the “pKa 2” value was 7.9. In addition, the “fumic (CYP2C8 inhibition)” value in the data set with CYP2C8 [4] is recorded as 1. For the same compound, in the data set with CYP2B6 (induction, read-out: CYP2B6 IndC50), the EC50 is 0.07 µM. Also, the “fuinc (CYP2B6 induction)” value in the data set with CYP2B6 was 1. In data set [5], the “Fraction unbound in plasma” value is on record as 0.116. The “fuinc (CYP1A2 induction)” value in the data set with CYP1A2 is listed as 1. Further, in [6], the Lag time is recorded as 0/30 h, the QGut is reported as 9.42/30 and the fuGut was 0.14. Also, in data set [7], the kin is 0 h⁻¹ and the kout is 0 h⁻¹.
